These results are taken from patent US9770022B2, “N-cycloalkyl-N-[(bicyclylphenyl)methylene]-(thio)carboxamide derivatives” (BAYER CROPSCIENCE AG, priority 2013, dated 2017).

Where two headings read alike, the source gives them in different places.

A short description of data set [1]: log P by HPLC on reversed-phase column (C 18), EEC Directive 79/831 Annex V.A8. The data set is classed as physicochemical. The following applies: Table 1, HPLC C 18, 40° C., 0.1% aqueous formic acid and acetonitrile, gradient 10% to 90% acetonitrile, two values = mixture of endo and exo isomers. How it is done: In table 1, the log P values were determined in accordance with EEC Directive 79/831 Annex V.A8 by HPLC (High Performance Liquid Chromatography) on a reversed-phase column (C 18), using the method described below:
Temperature: 40° C.; Mobile phases: 0.1% aqueous formic acid and acetonitrile; linear gradient from 10% acetonitrile to 90% acetonitrile.
Calibration was carried out using unbranched alkan-2-ones (comprising 3 to 16 carbon atoms) with known log P values (determination of the log P values by the retention times using linear interpolation between two successive alkanones). lambda-max-values were determined using UV-spectra from 200 nm to 400 nm and the peak values of the chromatographic signals.

Data set [2] deals with Alternaria brassicae. In words: In vivo preventive test on Alternaria brassicae (leaf spot on radish). The following applies: 500 ppm of active ingredient, spray 24 hours before inoculation, evaluated 6 days after inoculation. How it is done: (§1) Solvent: 5% by volume of Dimethyl sulfoxide
(§2) • 10% by volume of Acetone Emulsifier: 1 μl of Tween® 80 per mg of active ingredient
(§3) The active ingredients are made soluble and homogenized in a mixture of Dimethyl sulfoxide/Acetone/Tween® 80 and then diluted in water to the desired concentration.
The young plants of radish are treated by spraying the active ingredient prepared as described above. Control plants are treated only with an aqueous solution of Acetone/Dimethyl sulfoxide/Tween® 80.
After 24 hours, the plants are contaminated by spraying the leaves with an aqueous suspension of Alternaria brassicae spores. The contaminated radish plants are incubated for 6 days at 20° C. and at 100% relative humidity.
The test is evaluated 6 days after the inoculation. 0% means an efficacy which corresponds to that of the control plants while an efficacy of 100% means that no disease is observed.

The test system of data set [3] is Puccinia recondita. In words: In vivo preventive test on Puccinia recondita (brown rust on wheat). Particulars: 500 ppm of active ingredient, evaluated 11 days after inoculation. How it is done: as §1, §2, §3
(§4) The young plants of wheat are treated by spraying the active ingredient prepared as described above. Control plants are treated only with an aqueous solution of Acetone/Dimethyl sulfoxide/Tween® 80.
After 24 hours, the plants are contaminated by spraying the leaves with an aqueous suspension of Puccinia recondita spores. The contaminated wheat plants are incubated for 24 hours at 20° C. and at 100% relative humidity and then for 10 days at 20° C. and at 70-80% relative humidity.
(§5) The test is evaluated 11 days after the inoculation. 0% means an efficacy which corresponds to that of the control plants while an efficacy of 100% means that no disease is observed.

The subject of data set [4] is Pyrenophora teres. The experiment in a line: In vivo preventive test on Pyrenophora teres (barley). The following applies: 500 ppm of active ingredient, evaluated 14 days after inoculation. The method, then: as §1, §2, §3
The young plants of barley are treated by spraying the active ingredient prepared as described above. Control plants are treated only with an aqueous solution of Acetone/Dimethyl sulfoxide/Tween® 80.
After 24 hours, the plants are contaminated by spraying the leaves with an aqueous suspension of Pyrenophora teres spores. The contaminated barley plants are incubated for 48 hours at 20° C. and at 100% relative humidity and then for 12 days at 20° C. and at 70-80% relative humidity.
The test is evaluated 14 days after the inoculation. 0% means an efficacy which corresponds to that of the control plants while an efficacy of 100% means that no disease is observed.

Data set [5] deals with Uromyces appendiculatus. In words: In vivo preventive test on Uromyces appendiculatus (bean rust). The following applies: for pest or weed control at 500 ppm: Uromyces appendiculatus, 264 h; for Efficacy: 500 ppm of active ingredient, evaluated 11 days after inoculation. How it is done: as §1, §2, §3
The young plants of bean are treated by spraying the active ingredient prepared as described above. Control plants are treated only with an aqueous solution of Acetone/Dimethyl sulfoxide/Tween® 80.
After 24 hours, the plants are contaminated by spraying the leaves with an aqueous suspension of Uromyces appendiculatus spores. The contaminated bean plants are incubated for 24 hours at 20° C. and at 100% relative humidity and then for 10 days at 20° C. and at 70-80% relative humidity.
as §5

For data set [6], the system named is Sphaerotheca fuliginea. In words: In vivo preventive test on Sphaerotheca fuliginea (powdery mildew on cucurbits). The following applies: 500 ppm of active ingredient; gherkin; evaluated 15 days after inoculation. How it is done: as §1, §2, §3
The young plants of gherkin are treated by spraying the active ingredient prepared as described above. Control plants are treated only with an aqueous solution of Acetone/Dimethyl sulfoxide/Tween® 80.
After 24 hours, the plants are contaminated by spraying the leaves with an aqueous suspension of Sphaerotheca fuliginea spores. The contaminated gherkin plants are incubated for 72 hours at 18° C. and at 100% relative humidity and then for 12 days at 20° C. and at 70-80% relative humidity.
The test is evaluated 15 days after the inoculation. 0% means an efficacy which corresponds to that of the control plants while an efficacy of 100% means that no disease is observed.

Data set [7] relates to Septoria tritici. In words: In vivo preventive test on Septoria tritici (wheat). Particulars: 500 ppm of active ingredient, evaluated 24 days after inoculation. The method, then:
as §1, §2, §3, §4
After 24 hours, the plants are contaminated by spraying the leaves with an aqueous suspension of Septoria tritici spores. The contaminated wheat plants are incubated for 72 hours at 18° C. and at 100% relative humidity and then for 21 days at 20° C. and at 90% relative humidity.
The test is evaluated 24 days after the inoculation. 0% means an efficacy which corresponds to that of the control plants while an efficacy of 100% means that no disease is observed.

By logP is commonly meant the decadic logarithm of the partition coefficient of the neutral form, usually between octanol and water. The term chromatographic logP denotes lipophilicity estimated from chromatographic retention.

For the compound `CC(c1ccccc1C1CC2CCC1C2)N(C(=O)c1c(C(F)F)nn(C)c1F)C1CC1` (stereo not shown) [I.15, N-{1-[2-(bicyclo[2.2.1]hept-2-yl)phenyl]ethyl}-N-cyclopropyl-3-(difluoromethyl)-5-fluoro-1-methyl-1H-pyrazole-4-carboxamide], in data set [1], the logP is 4.98. The chromatographic logP in data set [1] (reversed-phase HPLC column (C 18)) worked out at 4.91. The Efficacy in data set [2] amounted to 97%; in data set [3], 88%; in data set [4] it was 100%; in data set [6], 100%; in data set [7], 100%. In addition, the pest or weed control at 500 ppm is 88% in data set [5] (read-out: Efficacy, 500 ppm of active ingredient, evaluated 11 days after inoculation); at least 80% in data set [5] (read-out: Efficacy, 500 ppm, evaluated 11 days after inoculation, Table F2 comparison); at least 80% in data set [5] (read-out: Efficacy, 500 ppm, evaluated 11 days after inoculation, Table F3 comparison).
On to `Cn1nc(C(F)F)c(C(=S)N(Cc2ccccc2C2CC3CCC2C3)C2CC2)c1F` (mixture of isomers) [I.18], for which the Efficacy is on record as 97% in data set [2]; 88% in data set [3]; 94% in data set [4]; 100% in data set [5]; 100% in data set [6]; 100% in data set [7].
For `Cn1nc(C(F)F)c(C(=O)N(Cc2ccccc2C23CCCCCC2C3(Cl)Cl)C2CC2)c1F` (stereo not shown) [I.13], in data set [1], the logP turned out to be 5.17. Further, the Efficacy in data set [2] stood at 75%; in data set [3] it was 81%; in data set [4], 75%; in data set [6], 100%; in data set [7] it was 88%.
For the compound `Cn1nc(C(F)F)c(C(=O)N(Cc2cc(C34CCCC3C4(Cl)Cl)ccc2Cl)C2CC2)c1F` (stereo not shown) [I.09], the logP in data set [1] is recorded as 4.90. The Efficacy is reported as 75% in data set [2]; 88% in data set [4]; 84% in data set [5]; 100% in data set [6]; 100% in data set [7].
As to `CC(C)c1ccc(C2=CC3CCC2(C)C3(C)C)cc1CN(C(=O)c1c(C(F)F)nn(C)c1F)C1CC1` (stereo not shown) [I.16], the logP in data set [1] is recorded as 6.46. For the same compound, the Efficacy is given as 79% in data set [2]; 94% in data set [3]; 94% in data set [4]; 100% in data set [6]; 100% in data set [7].
In the case of `Cn1nc(C(F)F)c(C(=O)N(Cc2ccccc2C2CC3CCC2C3)C2CC2)c1F` (mixture of isomers) [I.03], the Efficacy in data set [2] was determined as 96%; in data set [3], 98%; in data set [4], 100%; in data set [5] it was 100%; in data set [6], 100%; in data set [7], 100%.
With `Cn1cc(C(=O)N(Cc2ccccc2C2CC3CCC2C3)C2CC2)c(C(F)F)n1` (mixture of isomers) [I.05], the Efficacy is 80% in data set [2]; 94% in data set [3]; 71% in data set [4]; 91% in data set [5]; 95% in data set [6]; 86% in data set [7].
